Data from patent US7262289B2, “KCNQ potassium channels and methods of modulating same” (Bristol-Myers Squibb Co., priority 1997, dated 2007).
Like-named read-outs stand apart in the source and are kept apart here.

Columns and labels:
KCNQ2+KCNQ3 = target: T1, KCNQ2+KCNQ3 (Homo sapiens, UniProt O43525+O43526, DEL509-509/N780T); type: cell-based
T1 construct: The full-length cDNAs were subcloned into a Xenopus expression vector, derived from pSP64T plasmid; expressed in transfected cells; host or cells: Xenopus laevis oocytes (co-injection of cRNAs)
Protocol: FIGS. 19A-19F show co-expression of KCNQ2 and KCNQ3. […] Currents were recorded using the protocol in FIGS. 19A-19C. […] The dashed line has a slope predicted by the Nernst equation for a perfectly selective K^+ channel. Each value is the mean±SEM from 6 oocytes. […] Superimposed currents were recorded during 1 sec steps to +20 mV, from […], during the same experiment. Compounds were applied via bath perfusion in order from top to bottom.
(§1) Stage V and VI Xenopus laevis oocytes were defolliculated with collagenase treatment and injected with cRNAs, as described in Yang et al., supra. Currents were recorded at room temperature using the two-microelectrode voltage clamp (Dagan TEV-200) technique between 3-5 days after injection of KCNQ2 (15 ng), KCNQ3 (15 ng), or KCNE1 (2 ng) cRNA alone or in combination. Microelectrodes (0.8 to 1.5 MΩ) were filled with 3 M KCl . Bath solution contained (in mM): 96 NaCl, 2 KCl , 0.4-1.8 CaCl2, 1-2 MgCl2 and 5 HEPES (pH 7.5). KCl was varied in some experiments by equimolar substitution with NaCl.
(§2) Axoclamp (Axon Instruments) was used for generating voltage clamp commands and acquiring data and Axograph 3.0 (Axon Instruments) was used for data analysis. All data was sampled at rates at least two times the low pass filter rate. Experiments were performed at 22-25° C.

minK+human KCNQ2/KvLR1 = minK+human KCNQ2/KvLR1 (Homo sapiens, UniProt O43526); settings: 1 mM, steps to +40 mV from −80 mV
Chain of minK+human KCNQ2/KvLR1 (O43526 whole entry): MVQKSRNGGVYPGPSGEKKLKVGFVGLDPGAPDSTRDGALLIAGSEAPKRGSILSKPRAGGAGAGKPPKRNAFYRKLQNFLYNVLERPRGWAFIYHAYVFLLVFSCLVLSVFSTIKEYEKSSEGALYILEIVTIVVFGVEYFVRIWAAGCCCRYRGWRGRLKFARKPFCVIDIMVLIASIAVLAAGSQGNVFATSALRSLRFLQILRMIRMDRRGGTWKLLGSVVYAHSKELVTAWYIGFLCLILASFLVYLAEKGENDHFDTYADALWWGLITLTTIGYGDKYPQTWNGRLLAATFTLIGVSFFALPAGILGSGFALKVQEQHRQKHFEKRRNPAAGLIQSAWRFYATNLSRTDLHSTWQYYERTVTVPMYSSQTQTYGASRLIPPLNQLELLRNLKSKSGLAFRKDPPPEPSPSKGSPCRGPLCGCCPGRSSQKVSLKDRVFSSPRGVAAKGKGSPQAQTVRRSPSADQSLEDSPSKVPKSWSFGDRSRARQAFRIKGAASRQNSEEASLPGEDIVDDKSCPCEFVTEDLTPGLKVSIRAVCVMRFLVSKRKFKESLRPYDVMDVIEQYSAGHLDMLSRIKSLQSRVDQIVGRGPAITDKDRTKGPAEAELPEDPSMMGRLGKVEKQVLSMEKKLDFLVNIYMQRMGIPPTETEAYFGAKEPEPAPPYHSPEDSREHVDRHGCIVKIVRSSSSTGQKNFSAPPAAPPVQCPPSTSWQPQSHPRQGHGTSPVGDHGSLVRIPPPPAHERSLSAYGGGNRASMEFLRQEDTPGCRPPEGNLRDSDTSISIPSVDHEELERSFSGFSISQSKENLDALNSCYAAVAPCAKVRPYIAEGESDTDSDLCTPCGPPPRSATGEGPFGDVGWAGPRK
Protocol: as §1

human KCNQ2/KvLR1 = target: T2, human KCNQ2/KvLR1 (Homo sapiens, UniProt O43526, DEL509-509/N780T); type: cell-based
T2 construct: The full-length human KCNQ2 and KCNQ3 cDNAs were subcloned into a Xenopus expression vector and cRNA was generated by in vitro transcription; expressed in transfected cells; host or cells: Xenopus laevis oocytes (cRNA injection)
Protocol: Superimposed currents were recorded during 1 second steps to +30 mV, from −80 mV, during the same experiment. Compounds were applied via bath perfusion in order from top to bottom. The bath was perfused with control solution for 5 minutes, or until effects reversed completely, between compounds.
Inhibitors of various potassium channels present in brain and other tissues were used to investigate the pharmacology of KCNQ2/KvLR1.
as §1, §2

KCNQ3 = target: T3, KCNQ3 (Homo sapiens, UniProt O43525); type: cell-based
T3 construct: The full-length human KCNQ2 and KCNQ3 cDNAs were subcloned into a Xenopus expression vector and cRNA was generated by in vitro transcription; expressed in transfected cells; host or cells: Xenopus laevis oocytes (cRNA injection)
Protocol: FIGS. 18A-18D show the functional characterization of KCNQ3 currents. […] Currents were recorded using the protocol in FIG. 18A. […] Each value is the mean±SEM from 6 oocytes. […] Superimposed currents were recorded during 1 sec steps to +20 mV, from −80 mV, during the same experiment. Compounds were applied via bath perfusion in order from top to bottom. The bath was perfused with control solution for 5 min, or until effects reversed completely, between compounds.
as §1, §2

murine KCNQ2/KvLR1 = target: T4, murine KCNQ2/KvLR1 (Mus musculus, UniProt Q9Z351, DEL481-481/H600Q/P326Q); assay: murine KCNQ2/KvLR1-mediated whole-cell currents in Xenopus oocytes, 2-electrode voltage clamp; type: cell-based; settings: for effect on murine KCNQ2-mediated currents: concentration not given
T4 construct: Also disclosed is a full-length murine cDNA clone of KCNQ2 (murine KvLR1); expressed in transfected cells; host or cells: Xenopus oocytes (cRNA injection)
Protocol: FIGS. 15A and 15B show electrophysiology characterization of mouse KCNQ2/KvLR1-mediated whole-cell currents expressed in Xenopus oocytes.
To test for functional expression, cRNA was prepared from the murine KCNQ2/KvLR1 gene and injected into Xenopus oocytes. In a two-electrode voltage clamp, a family of outward currents were generated in murine KCNQ2/KvLR1 cRNA-injected oocytes (n>20). After a minimum of 48 hours, currents qualitatively and quantitatively different than native currents generated with identical protocols in water injected or uninjected control cells (representing Ca^2+-activated chloride currents and other native currents) (FIG. 15). […] Similar currents were obtained from CHO cells stably expressing murine KCNQ2 and recorded using patch-clamp techniques. Single channel conductances were estimated to be 24-30 pS in symmetrical 140 mM potassium. (FIG. 22).
The murine KCNQ2/KvLR1 cDNAs were linearized with the restriction enzyme NotI and in vitro transcribed using the mMessage mMachine T7 RNA polymerase kit according to the manufacturer's instructions (Ambion, Austin, Tex.). The cRNAs were solubilized in RNase-free water, and stored at −70° C. at a concentration of 1.0 μg/μl. Frog oocytes were prepared and injected using standard techniques (Colman, 1984). In murine KvLR1 expression experiments, each oocyte was injected with approximately 35-40 nl of the cRNA. Following injection, oocytes were maintained at 17° C., in ND96 medium consisting of (in mM): NaCl, 90; KCl, 1.0; CaCl2, 1.0; MgCl2, 1.0; HEPES, 5.0; pH 7.5. Horse serum and penicillin/streptomycin, both 5% of final volume, were added as supplements to the incubation medium. Electrophysiological recording commenced 2-6 days following cRNA injection. Prior to the start of an experiment oocytes were placed in a recording chamber and incubated in Modified Barth's Solution (MBS) consisting of (in mM): NaCl, 88; NaHCO3, 2.4; KCl, 1.0; HEPES, 10; MgSO4, 0.82; Ca(NO3)2, 0.33; CaCl2, 0.41; pH 7.5. Oocytes were impaled with electrodes (1-2 MΩ) and standard 2-electrode voltage clamp techniques were employed to record whole-cell membrane currents (Stuhmer, 1992; TEC 200, Dagan Instruments). Voltage-clamp protocols typically consisted of a series of voltage steps 100-500 ms duration, in +10 mV steps from a holding potential of −60 mV to −90 mV to a maximal potential of +40 mV to +50 mV; records were digitized at 5 kHz and stored on a computer using pClamp 6.0 software (Axon Instruments), and analyzed using ClampFit or AxoGraph software (Axon Instruments).

KCNQ1/KvLQT1 [1] = target: T5, KCNQ1/KvLQT1 (Homo sapiens, UniProt P51787); settings: from Yang et al. (1997); cited from earlier work
KCNQ1/KvLQT1 [2] = target: T5, KCNQ1/KvLQT1; assay: KCNQ1/KvLQT1 currents (comparison); type: cell-based; settings: no citation, concentration not given
[3] = 10 μM, steps to +30 mV from −80 mV

CC[N+](CC)(CC)CC [TEA, tetraethylammonium]
sensitivity of KCNQ2+KCNQ3 current to inhibition (KCNQ2+KCNQ3): weakly sensitive to inhibition
effect on minK+human KCNQ2/KvLR1 currents (minK+human KCNQ2/KvLR1): partially inhibited
effect on KCNQ2 current (human KCNQ2/KvLR1): strongly inhibited
effect on KCNQ3 current (KCNQ3): little inhibition
block of murine KCNQ2/KvLR1-mediated currents (murine KCNQ2/KvLR1): blocked

Cc1cccc(CCN2CCC(C(=O)c3ccc(NS(C)(=O)=O)cc3)CC2)n1 [E-4031]
sensitivity of KCNQ2+KCNQ3 current to inhibition (KCNQ2+KCNQ3; 10 μM): did not inhibit
effect on KCNQ2/KvLR1 current (human KCNQ2/KvLR1; [3]): Neither E-4031 nor 4-AP produced significant effects
effect on KCNQ3 current (KCNQ3; 10 μM): no effect
inhibition of KCNQ1/KvLQT1 currents (KCNQ1/KvLQT1 [1]): do not inhibit

Charybdotoxin
sensitivity of KCNQ2+KCNQ3 current to inhibition (KCNQ2+KCNQ3; 100 nM): not
effect on KCNQ2/KvLR1 current (human KCNQ2/KvLR1; 0.1 mM (concentration tested)): did not inhibit
effect on KCNQ3 current (KCNQ3; 100 nM): no effect
effect on KCNQ1/KvLQT1 (KCNQ1/KvLQT1 [2]): no effect
effect on murine KCNQ2-mediated currents (murine KCNQ2/KvLR1): no significant effect

Nc1ccncc1 [4-AP, 4-aminopyridine]
sensitivity of KCNQ2+KCNQ3 current to inhibition (KCNQ2+KCNQ3; 2 mM): not
effect on KCNQ2/KvLR1 current (human KCNQ2/KvLR1; 0.2 mM): Neither E-4031 nor 4-AP produced significant effects
effect on KCNQ3 current (KCNQ3; 2 mM): no effect
inhibition of KCNQ1/KvLQT1 currents (KCNQ1/KvLQT1 [1]): do not inhibit

CCCCCCC[N+](CC)(CC)CCCCc1ccc(Cl)cc1 [clofilium]
sensitivity of KCNQ2+KCNQ3 current to inhibition (KCNQ2+KCNQ3; 10 μM): weakly sensitive to inhibition
effect on KCNQ2/KvLR1 current (human KCNQ2/KvLR1; [3]): little effect
reduction of KCNQ3 current from control (KCNQ3; 10 μM): 30%
inhibition of KCNQ1/KvLQT1 currents (KCNQ1/KvLQT1 [1]): strong inhibitor
block of murine KCNQ2-mediated currents (murine KCNQ2/KvLR1; 20 μM, depolarized from −80 to +40): partially block

iberiotoxin: specific K+ channel blocking toxin (QFTDVDCSVSKECWSVCKDLFGVDRGKCMGKKCRCYQ)
effect on murine KCNQ2-mediated currents (murine KCNQ2/KvLR1): no significant effect

α-dendrotoxin (QPRRKLCILHRNPGRCYDKIPAFYYNQKKKQCERFDWSGCGGNSNRFKTIEECRRTCIG)
effect on murine KCNQ2-mediated currents (murine KCNQ2/KvLR1): no significant effect
